Experimental data as given in ChEMBL document CHEMBL1240489, “Discovery of N-{1-[3-(3-oxo-2,3-dihydrobenzo[1,4]oxazin-4-yl)propyl]piperidin-4-yl}-2-phenylacetamide (Lu AE51090): an allosteric muscarinic M1 receptor agonist with unprecedented selectivity and procognitive potential” (J Med Chem, 2010).

Legend:
Nischarin = Nischarin (Homo sapiens, UniProt Q9Y2I1); assay: Binding affinity to I1 receptor by radioligand displacement assay
[1] = target: Alpha-1B adrenergic receptor (Homo sapiens, UniProt P35368); assay: Binding affinity to human adrenergic Alpha-1B receptor by radioligand displacement assay
[2] = Binding affinity to central benzodiazepine receptor by radioligand displacement assay
[3] = Binding affinity to GABA transporter by radioligand displacement assay
[4] = target: T1, Muscarinic acetylcholine receptor M4 (Homo sapiens, UniProt P08173); assay: Binding affinity to human muscarinic M4 receptor by radioligand displacement assay
T1 sequence (P08173 whole entry): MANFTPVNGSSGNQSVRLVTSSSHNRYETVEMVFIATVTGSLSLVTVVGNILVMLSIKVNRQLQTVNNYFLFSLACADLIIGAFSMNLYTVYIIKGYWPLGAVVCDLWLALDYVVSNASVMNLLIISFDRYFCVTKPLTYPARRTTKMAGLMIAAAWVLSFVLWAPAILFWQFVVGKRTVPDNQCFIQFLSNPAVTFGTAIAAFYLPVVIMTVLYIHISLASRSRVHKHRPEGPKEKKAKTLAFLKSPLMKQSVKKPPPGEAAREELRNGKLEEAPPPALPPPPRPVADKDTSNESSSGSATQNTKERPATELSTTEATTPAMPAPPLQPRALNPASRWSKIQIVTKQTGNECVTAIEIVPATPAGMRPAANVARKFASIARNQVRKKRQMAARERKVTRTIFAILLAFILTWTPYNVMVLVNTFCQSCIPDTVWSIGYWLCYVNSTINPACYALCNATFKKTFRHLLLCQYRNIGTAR

[5] = target: 5-hydroxytryptamine receptor 3A (Homo sapiens, UniProt P46098); assay: Binding affinity to human 5-HT3 receptor by radioligand displacement assay
[6] = target: Sodium-dependent serotonin transporter (Homo sapiens, UniProt P31645); assay: Binding affinity to human 5-HT transporter by radioligand displacement assay
[7] = Binding affinity to adrenergic alpha1 receptor by radioligand displacement assay
[8] = Binding affinity to human delta2 opioid receptor by radioligand displacement assay
[9] = Binding affinity to L-type Ca2+ channel verapamil site by radioligand displacement assay
Adenosine receptor A1 = Adenosine receptor A1 (Homo sapiens, UniProt P30542); assay: Binding affinity to human adenosine A1 receptor by radioligand displacement assay
[10] = target: 5-hydroxytryptamine receptor 4 (Homo sapiens, UniProt Q13639); assay: Binding affinity to human 5-HT4e receptor by radioligand displacement assay
Mus musculus = assay: Reversal of 60 seconds delay-induced memory decay in sc dosed C57Bl/6J mouse assessed as positive alteration administered for 1 week by Y-maze test; assay type: functional, organism-based
Mu-type opioid receptor = Mu-type opioid receptor (Homo sapiens, UniProt P35372); assay: Binding affinity to human mu opioid receptor agonist site by radioligand displacement assay
Brain = assay: Protein binding in C57/6J mouse brain homogenates at 20 mg/kg, sc by equilibrium dialysis; assay type: ADME, organism-based; design: dose 20 mg/kg, route subcutaneous; details: in vivo
[11] = target: T2, Muscarinic acetylcholine receptor M2 (Homo sapiens) (UniProt P08172); assay: Agonist activity at human muscarinic M2 receptor expressed in CHO-K1 cells coexpressing Galpha16 subunit assessed as increase of acetylcholine-induced calcium flux at 10 uM by FLIPR assay relative to acetylcholine; assay type: functional, cell-based
T2 sequence (whole entry): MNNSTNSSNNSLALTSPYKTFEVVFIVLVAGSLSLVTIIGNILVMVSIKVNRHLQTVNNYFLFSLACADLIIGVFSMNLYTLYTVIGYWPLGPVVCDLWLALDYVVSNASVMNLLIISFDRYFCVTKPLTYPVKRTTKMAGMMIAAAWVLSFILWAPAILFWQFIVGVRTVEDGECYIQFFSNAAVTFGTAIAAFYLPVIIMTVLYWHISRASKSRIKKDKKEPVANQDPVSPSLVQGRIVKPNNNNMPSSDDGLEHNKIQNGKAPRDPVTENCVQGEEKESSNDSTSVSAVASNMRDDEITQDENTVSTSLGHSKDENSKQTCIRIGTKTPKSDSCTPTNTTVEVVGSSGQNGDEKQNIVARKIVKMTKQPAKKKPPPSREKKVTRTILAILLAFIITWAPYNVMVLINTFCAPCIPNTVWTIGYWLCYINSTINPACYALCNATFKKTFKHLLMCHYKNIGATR

D(4) dopamine receptor = D(4) dopamine receptor (Homo sapiens, UniProt P21917); assay: Binding affinity to human D4.4 receptor by radioligand displacement assay
[12] = target: 5-hydroxytryptamine receptor 2A (Homo sapiens, UniProt P28223); assay: Binding affinity to human 5-HT2A agonist site receptor by radioligand displacement assay
[13] = target: Muscarinic acetylcholine receptor M3 (Homo sapiens, UniProt P20309); assay: Displacement of [3H]-4-DAMP from human muscarinic M3 receptor expressed in BHK-21 cells; assay type: cell-based
[14] = Oral bioavailability in rat plasma at 2 mg/kg; assay type: ADME, organism-based
[15] = Ratio of brain to plasma AUC in C57/6J mouse at 20 mg/kg, sc; assay type: ADME, organism-based; design: dose 20 mg/kg, route subcutaneous
[16] = target: Sodium-dependent dopamine transporter (Homo sapiens, UniProt Q01959); assay: Binding affinity to human dopamine transporter by radioligand displacement assay
[17] = Volume of distribution at steady state in rat plasma at 1 mg/kg, iv and 2 mg/kg, po; assay type: ADME, organism-based; details: read-out: Vdss
D(2) dopamine receptor = D(2) dopamine receptor (Homo sapiens, UniProt P14416); assay: Binding affinity to human dopamine D2S receptor by radioligand displacement assay
[18] = target: T3, Muscarinic acetylcholine receptor M5 (Homo sapiens) (UniProt P08912); assay: Agonist activity at human muscarinic M5 receptor expressed in BHK-21 cells assessed as increase of acetylcholine-induced calcium flux at 10 uM by FLIPR assay relative to acetylcholine; assay type: functional, cell-based
T3 sequence (whole entry): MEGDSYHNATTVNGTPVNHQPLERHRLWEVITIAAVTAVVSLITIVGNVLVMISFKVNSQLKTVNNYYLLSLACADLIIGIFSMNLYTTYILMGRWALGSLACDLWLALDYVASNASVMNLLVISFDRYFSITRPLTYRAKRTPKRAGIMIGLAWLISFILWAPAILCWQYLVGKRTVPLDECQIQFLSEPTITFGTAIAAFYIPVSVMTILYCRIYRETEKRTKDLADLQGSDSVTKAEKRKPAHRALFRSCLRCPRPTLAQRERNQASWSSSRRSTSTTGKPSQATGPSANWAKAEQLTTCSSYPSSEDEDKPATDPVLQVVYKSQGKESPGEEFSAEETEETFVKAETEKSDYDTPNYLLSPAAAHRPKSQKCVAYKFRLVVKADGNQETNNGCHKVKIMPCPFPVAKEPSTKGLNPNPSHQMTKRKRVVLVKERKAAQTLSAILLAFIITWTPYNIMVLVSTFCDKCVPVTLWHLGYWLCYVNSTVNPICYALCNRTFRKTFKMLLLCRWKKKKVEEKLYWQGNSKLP

[19] = Tmax in rat plasma at 2 mg/kg, po; assay type: ADME, organism-based; design: dose 2 mg/kg, route oral

D(4) dopamine receptor, sequence (P21917 whole entry): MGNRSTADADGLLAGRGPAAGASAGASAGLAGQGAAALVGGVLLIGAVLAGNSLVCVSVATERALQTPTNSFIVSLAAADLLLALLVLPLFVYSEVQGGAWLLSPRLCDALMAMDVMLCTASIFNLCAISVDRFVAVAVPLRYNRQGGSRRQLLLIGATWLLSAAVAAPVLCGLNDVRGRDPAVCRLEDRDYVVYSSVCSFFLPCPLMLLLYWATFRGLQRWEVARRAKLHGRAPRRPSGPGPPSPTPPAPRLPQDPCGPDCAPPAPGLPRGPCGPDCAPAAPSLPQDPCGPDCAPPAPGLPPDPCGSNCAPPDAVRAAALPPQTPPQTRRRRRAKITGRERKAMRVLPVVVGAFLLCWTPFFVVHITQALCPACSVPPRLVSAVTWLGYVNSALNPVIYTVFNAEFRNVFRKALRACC
Nischarin, sequence (Q9Y2I1 whole entry): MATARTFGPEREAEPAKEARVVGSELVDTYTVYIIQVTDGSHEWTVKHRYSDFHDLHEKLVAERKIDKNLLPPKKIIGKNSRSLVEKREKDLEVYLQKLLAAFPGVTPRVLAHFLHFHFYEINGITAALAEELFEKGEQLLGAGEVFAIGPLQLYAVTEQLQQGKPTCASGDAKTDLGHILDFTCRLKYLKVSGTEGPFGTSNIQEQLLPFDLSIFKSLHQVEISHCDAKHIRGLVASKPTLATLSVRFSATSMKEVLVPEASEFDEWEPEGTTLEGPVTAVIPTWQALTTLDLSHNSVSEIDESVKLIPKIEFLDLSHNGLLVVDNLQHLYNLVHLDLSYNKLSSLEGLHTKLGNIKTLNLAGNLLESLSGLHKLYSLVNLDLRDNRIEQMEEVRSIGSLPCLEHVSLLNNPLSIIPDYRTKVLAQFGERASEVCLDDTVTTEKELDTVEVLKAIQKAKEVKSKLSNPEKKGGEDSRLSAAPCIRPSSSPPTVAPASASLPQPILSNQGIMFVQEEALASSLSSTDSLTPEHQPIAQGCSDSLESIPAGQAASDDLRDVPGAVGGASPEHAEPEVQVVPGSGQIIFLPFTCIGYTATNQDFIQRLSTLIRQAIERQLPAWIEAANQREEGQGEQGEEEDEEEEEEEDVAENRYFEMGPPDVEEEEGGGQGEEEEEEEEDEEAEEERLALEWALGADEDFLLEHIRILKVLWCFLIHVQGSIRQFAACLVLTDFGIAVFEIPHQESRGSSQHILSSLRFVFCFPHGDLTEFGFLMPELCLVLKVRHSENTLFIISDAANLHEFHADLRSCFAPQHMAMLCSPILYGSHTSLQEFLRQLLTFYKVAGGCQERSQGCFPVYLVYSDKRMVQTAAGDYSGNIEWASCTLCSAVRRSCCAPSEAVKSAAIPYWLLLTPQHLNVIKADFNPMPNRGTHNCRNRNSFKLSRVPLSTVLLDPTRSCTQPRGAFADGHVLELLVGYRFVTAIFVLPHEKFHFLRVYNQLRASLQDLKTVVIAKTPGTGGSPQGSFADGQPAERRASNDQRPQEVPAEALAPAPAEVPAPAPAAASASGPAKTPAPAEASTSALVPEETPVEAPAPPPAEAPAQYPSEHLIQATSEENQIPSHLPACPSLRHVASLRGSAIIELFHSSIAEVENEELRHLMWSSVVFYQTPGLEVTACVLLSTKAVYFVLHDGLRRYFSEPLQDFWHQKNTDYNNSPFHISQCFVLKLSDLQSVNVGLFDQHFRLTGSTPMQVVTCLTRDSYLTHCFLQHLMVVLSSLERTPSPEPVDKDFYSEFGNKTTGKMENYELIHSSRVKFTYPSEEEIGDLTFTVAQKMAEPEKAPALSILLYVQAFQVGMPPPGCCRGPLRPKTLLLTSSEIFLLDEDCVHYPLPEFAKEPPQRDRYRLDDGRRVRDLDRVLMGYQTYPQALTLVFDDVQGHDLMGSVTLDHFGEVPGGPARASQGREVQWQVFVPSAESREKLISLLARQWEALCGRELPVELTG
Muscarinic acetylcholine receptor M3, sequence (P20309 whole entry): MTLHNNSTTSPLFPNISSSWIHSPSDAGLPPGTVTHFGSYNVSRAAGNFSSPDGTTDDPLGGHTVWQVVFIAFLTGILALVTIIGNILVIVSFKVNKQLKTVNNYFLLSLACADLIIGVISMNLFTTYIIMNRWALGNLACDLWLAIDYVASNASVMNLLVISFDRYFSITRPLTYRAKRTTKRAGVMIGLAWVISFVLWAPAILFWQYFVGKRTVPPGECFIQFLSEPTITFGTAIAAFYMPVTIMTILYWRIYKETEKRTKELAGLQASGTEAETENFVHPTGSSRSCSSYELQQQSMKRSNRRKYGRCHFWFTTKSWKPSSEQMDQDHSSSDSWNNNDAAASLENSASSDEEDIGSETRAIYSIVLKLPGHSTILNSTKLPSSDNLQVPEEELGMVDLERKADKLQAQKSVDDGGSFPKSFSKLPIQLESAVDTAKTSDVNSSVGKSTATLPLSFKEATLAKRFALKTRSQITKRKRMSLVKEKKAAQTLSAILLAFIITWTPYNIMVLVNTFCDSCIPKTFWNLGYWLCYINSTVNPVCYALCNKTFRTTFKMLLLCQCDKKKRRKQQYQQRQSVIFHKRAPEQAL
Sodium-dependent serotonin transporter, sequence (P31645 whole entry): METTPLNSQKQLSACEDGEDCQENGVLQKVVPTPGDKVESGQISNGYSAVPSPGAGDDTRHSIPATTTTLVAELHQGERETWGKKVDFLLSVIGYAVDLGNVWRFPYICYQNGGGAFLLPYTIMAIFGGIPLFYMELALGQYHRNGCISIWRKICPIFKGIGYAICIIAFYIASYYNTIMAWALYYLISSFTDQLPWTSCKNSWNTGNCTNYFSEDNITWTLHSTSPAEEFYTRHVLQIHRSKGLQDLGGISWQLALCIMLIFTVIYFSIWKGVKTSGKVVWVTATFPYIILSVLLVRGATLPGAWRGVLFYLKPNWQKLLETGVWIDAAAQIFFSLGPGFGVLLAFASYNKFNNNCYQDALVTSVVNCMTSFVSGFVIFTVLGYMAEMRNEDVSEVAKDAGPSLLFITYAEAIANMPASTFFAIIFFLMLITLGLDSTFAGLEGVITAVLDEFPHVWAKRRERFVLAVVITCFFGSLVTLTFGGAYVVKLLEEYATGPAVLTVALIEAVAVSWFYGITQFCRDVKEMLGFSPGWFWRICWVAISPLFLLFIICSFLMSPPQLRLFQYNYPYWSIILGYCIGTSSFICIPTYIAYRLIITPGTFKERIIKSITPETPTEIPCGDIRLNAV
D(2) dopamine receptor, sequence (P14416 whole entry): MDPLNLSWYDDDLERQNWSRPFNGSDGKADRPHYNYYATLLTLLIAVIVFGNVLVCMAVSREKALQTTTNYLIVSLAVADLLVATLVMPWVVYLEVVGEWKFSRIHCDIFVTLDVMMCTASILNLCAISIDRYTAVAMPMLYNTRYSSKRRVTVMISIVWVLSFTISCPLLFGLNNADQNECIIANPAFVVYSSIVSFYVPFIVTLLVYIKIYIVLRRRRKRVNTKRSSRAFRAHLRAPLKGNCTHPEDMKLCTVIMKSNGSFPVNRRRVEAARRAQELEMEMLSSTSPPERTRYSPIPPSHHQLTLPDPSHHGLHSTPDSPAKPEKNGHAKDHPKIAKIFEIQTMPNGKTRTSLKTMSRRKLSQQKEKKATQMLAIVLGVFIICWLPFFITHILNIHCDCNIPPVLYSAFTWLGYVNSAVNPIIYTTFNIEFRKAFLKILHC
5-hydroxytryptamine receptor 4, sequence (Q13639 whole entry): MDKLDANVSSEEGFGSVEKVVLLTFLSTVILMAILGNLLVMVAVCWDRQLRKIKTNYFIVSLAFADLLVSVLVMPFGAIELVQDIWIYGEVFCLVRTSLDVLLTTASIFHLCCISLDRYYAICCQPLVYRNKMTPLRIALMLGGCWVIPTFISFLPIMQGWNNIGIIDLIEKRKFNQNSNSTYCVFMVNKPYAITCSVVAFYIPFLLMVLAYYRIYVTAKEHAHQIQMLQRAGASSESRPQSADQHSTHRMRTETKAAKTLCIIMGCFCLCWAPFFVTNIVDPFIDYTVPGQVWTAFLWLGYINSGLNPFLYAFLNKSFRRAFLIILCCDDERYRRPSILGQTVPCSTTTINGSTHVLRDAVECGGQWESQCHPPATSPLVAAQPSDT
Alpha-1B adrenergic receptor, sequence (P35368 whole entry): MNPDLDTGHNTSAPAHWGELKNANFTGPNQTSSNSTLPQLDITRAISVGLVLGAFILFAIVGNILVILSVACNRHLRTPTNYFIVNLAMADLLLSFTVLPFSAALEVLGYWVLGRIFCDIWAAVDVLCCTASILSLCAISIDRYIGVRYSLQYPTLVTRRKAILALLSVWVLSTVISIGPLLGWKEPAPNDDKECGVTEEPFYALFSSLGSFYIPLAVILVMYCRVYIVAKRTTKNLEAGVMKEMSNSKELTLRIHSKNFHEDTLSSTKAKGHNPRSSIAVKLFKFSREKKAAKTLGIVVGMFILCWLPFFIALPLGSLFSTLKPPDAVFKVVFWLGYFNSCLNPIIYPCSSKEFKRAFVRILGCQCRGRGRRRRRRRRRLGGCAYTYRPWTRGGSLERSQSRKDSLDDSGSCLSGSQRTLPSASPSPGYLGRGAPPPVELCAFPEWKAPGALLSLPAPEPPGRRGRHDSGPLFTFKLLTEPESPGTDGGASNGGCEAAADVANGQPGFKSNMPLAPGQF
5-hydroxytryptamine receptor 2A, sequence (P28223 whole entry): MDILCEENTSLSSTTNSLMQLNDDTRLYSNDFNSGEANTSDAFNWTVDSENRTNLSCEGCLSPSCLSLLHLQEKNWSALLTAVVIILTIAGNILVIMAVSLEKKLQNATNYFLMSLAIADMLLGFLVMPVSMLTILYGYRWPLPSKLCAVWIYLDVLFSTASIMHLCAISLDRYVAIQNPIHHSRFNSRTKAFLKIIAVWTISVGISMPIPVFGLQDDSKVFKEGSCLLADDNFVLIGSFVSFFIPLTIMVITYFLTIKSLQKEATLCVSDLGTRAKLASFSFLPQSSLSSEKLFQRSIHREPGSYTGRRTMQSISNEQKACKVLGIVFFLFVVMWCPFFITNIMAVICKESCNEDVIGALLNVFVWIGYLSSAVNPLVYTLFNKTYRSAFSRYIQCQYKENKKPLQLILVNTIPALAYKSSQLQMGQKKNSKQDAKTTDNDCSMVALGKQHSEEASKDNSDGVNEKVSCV

## O=C(Cc1ccccc1)NC1CCN(CCCN2C(=O)COc3ccccc32)CC1
Nischarin
  Ki: ≥ 1 µM
[1]
  Ki: 0.91 µM
[2]
  Ki: ≥ 1 µM
[3]
  Ki: ≥ 1 µM
[4]
  Ki: ≥ 1 µM
[5]
  Ki: ≥ 1 µM
[6]
  Ki: ≥ 1 µM
[7]
  Ki: ≥ 1 µM
[8]
  Ki: ≥ 1 µM
[9]
  Ki: ≥ 1 µM
Adenosine receptor A1
  Ki: ≥ 1 µM
[10]
  Ki: ≥ 1 µM
Mus musculus
  Activity: Dose-dependent effect
Mu-type opioid receptor
  Ki: ≥ 1 µM
Brain
  Activity: 70%
[11]
  Emax: 0%
D(4) dopamine receptor
  Ki: ≥ 1 µM
[12]
  Ki: ≥ 1 µM
[13]
  Ki: 7 µM
[14]
  bioavailability: 4%
[15]
  Kp: 0.35
[16]
  Ki: ≥ 1 µM
[17]
  Vd: 4.8 L/kg
D(2) dopamine receptor
  Ki: ≥ 1 µM
[18]
  Emax: 1%
[19]
  Tmax: 48 min
